Test results taken from patent US5304125A, “Apparatus for administering solid particulate aerosols to the lungs” (priority 1993, dated 1994).
Structures can show the parent of a compound that is named as a salt.

Columns and labels:
[1] = test system: Na^+ transport rates by cystic fibrosis airway epithelia; experiment: Ussing chamber bioassay of Na+ transport (short circuit current) in freshly excised human cystic fibrosis airway epithelia; format: cell-based
Description: Freshly excised human cystic fibrosis airway […] used to assay bioactive amiloride in solution. Freshly excised tissues is obtained from the Operating Room at The University of North Carolina Hospitals as previously described. R. Boucher, M. Stutts, M. Knowles, L. Cantley, and J. Gatzy, Na+ transport in cystic fibrosis respiratory epithelia. Abnormal basal rate and response to adenylate cyclase activation. J. Clin. Invest. 78, 1245-1252 (1986). The tissue preparation is mounted in a minature Ussing chamber that has 6 ml of solution bathing each (mucosal; basolateral) surface of the preparation. The solution is a Krebs-Ringer bicarbonate solution which approximates the ionic composition of plasma. This solution is warmed (37°) and circulated with a gas lift (95% oxygen, 5% CO2) system. Mixing time in this chamber has been previously measured by calibration with dyes (blue dextran) and is five seconds or less. The measurement of sodium transport rates is performed using a voltage clamp that is interfaced to the tissue preparation by pairs of potential sensing electrodes and current passing electrodes. The current required to null the transepithelial potential difference to zero is the short circuit current, which in human airway tissue is an accurate index of sodium transport rates. See R. Boucher et al., supra. […] This experiment was conducted as described above. […]

[2] = Fate/dose of aerosolized amiloride (respirable, oropharyngeal, systemic) from Spinhaler or MDI in throat/Andersen impactor apparatus
Description: The present invention was tested using two devices that generate dry particle aerosols, the Spinhaler™ from Fisons, Inc., See Bell, J. Pharm. Sci. 60, 1559 (1971); Cox, Brit. Med. J. 2, 634 (1969), and the metered-dose inhaler (MDI). The Spinhaler™ consists of a rotor that holds a gelatin capsule containing the dry amiloride powder. After the capsule is pierced, the patient inhales through the mouthpiece causing the rotor to spin and vibrate at a high speed, dispensing and dispersing the drug. The MDI consists of a pressurized canister containing the drug, the propellant, and a surfactant. When activated, the MDI spray disperses the drug within large droplets of propellant into a spacer. Evaporation of the propellant and sedimentation of the larger particles yield dry drug that is inhaled by the patient.
(§1) FIG. 6 is a drawing of the experimental apparatus used in these studies. For the Spinhaler™ tests, lactose was used as a flow aid to dispense amiloride from the capsules. Before use, the lactose was not micronized, but was shaken through a 400 mesh sieve so that all lactose particles used were smaller than 37 μm. Amiloride was then mixed with the lactose in a 1:1 ratio and the material was reshaken through the 400 mesh sieve to break apart any agglomerates. Then 58 mg of the resieved mixture of amiloride and lactose was placed in capsule with pre-drilled holes and loaded into the Spinhaler™. Air at 60 liters per minute (Lpm) flowed in succession through the aerosol generator 60 (a Spinhaler™), an impactor 10 as described in connection with FIGS. 1-4 above, a glass "throat" 61, and a plastic "distal pharynx" 62. Within the distal pharynx an isokinetic sample at 28.3 Lpm flowed through a nozzle 63 and into an Andersen impactor 64. The remaining 31.7 Lpm of the original 60 Lpm was drawn off through a bypass line 65 that led to a filter 66, a rotameter 67, and to a vacuum (not illustrated). Gas that left the Andersen impactor flowed through a filter 68 to a second rotameter 69 to vacuum. To conduct a test, vacuum was applied simultaneously to both the Andersen impactor and the bypass lines. Air flow at 60 Lpm was maintained for four seconds to simulate an inspiration; six inspirations were used for each capsule of drug tested.
Amiloride used with the MDI was first milled until essentially all particles were smaller than 2.6 μm in diameter as determined using an optical microscope. This amiloride was then packaged in an MDI with Freon propellants (trichlorofluoromethane and dichlorodifluoromethane) and a surfactant (sorbitan trioleate), added to break up droplets or aggregates of solid particles. A Nebuhaler™ spacer 27 cm long, (see Newman, 39 Thorax 935 (1984)), was attached to the MDI to allow evaporation of the propellant and to remove larger particles by sedimentation. Prior to each release of drug from the MDI, the canister was shaken vigorously to achieve homogeneity. In each test, the MDI aerosol was dispersed into the spacer via a 50 μl metering valve designed to deliver 1 mg amiloride per puff; however, the actual delivery was closer to 3 mg/puff as determined by spectrophotometric analysis of all amiloride collected as discussed below. Leakage of some liquid from the MDI canisters between the filling time and the actual usage would have increased the concentration of amiloride without affecting internal canister pressure. Following the dispersion and a one second delay, vacuum was applied to both the Andersen impactor and bypass lines and maintained for four seconds. This procedure was repeated for a total of six aerosol puffs from the MDI for each test The MDI tests, like the Spinhaler™ tests, used a total flow of 60 Lpm; 28.3 to the Andersen impactor and […] through the bypass line.
Tests were conducted with the MDI and spacer both with and without the impactor. […]

cystic fibrosis = conditions: liquid aerosol; Knowles, N. Engl. J. Med. (1990); cited from earlier work
[3] = Aerosol size distribution (Andersen impactor); format: physicochemical; conditions: 60 Lpm
Description: as §1, with “SpinhalerTM” for “Spinhaler™”, “reshaken” left out, “resieved” left out, “SpinhalerTM.” for “Spinhaler™.”, “SpinhalerTM),” for “Spinhaler™),”, “tested. […] This amiloride was then packaged in an MDI with Freon propellants (trichlorofluoromethane and dichlorodifluoromethane) and a surfactant (sorbitan trioleate), added to break up droplets or aggregates of solid particles. A NebuhalerTM spacer 27 cm long, (see Newman, 39 Thorax 935 (1984)), was attached to the MDI to allow evaporation of the propellant and to remove larger particles by sedimentation. Prior to each release of drug from the MDI, the canister was shaken vigorously to achieve homogeneity. […] Leakage of some liquid from the MDI canisters between the filling time and the actual usage would have increased the concentration of amiloride without affecting internal canister pressure. […] The fractional efficiency of the impactor was determined by comparing the mass of amiloride collected on each stage of the Andersen impactor with and without the impactor in place. […] The components analyzed for amiloride included the SpinhalerTM and its used capsule, the NebuhalerTM spacer when used, the impactor when used, the glass throat, the distal pharynx, and the sidearm filter, plus the entry nozzle, six individual plates, and final filter of the Andersen impactor. Washes from each of these components were then analyzed for amiloride. […]” for “tested.”

[4] = test system: luminal membrane of airway epithelia; conditions: applied to the luminal membrane of airway epithelia; cited from earlier work
[5] = in vivo

N=C(N)NC(=O)c1nc(Cl)c(N)nc1N [amiloride hydrochloride]
time to complete inhibition of ISC (Na^+ transport) ([1]; Krebs-Ringer bicarbonate, 37°, human CF airway epithelia, dry powder particle size about 1 μm): about sixty
timed release effect (dissolution of solid particles) ([1]; respirable particles ~1 μm, aqueous solution approximating the ionic strength of plasma): dissolved slowly over time

N=C(N)NC(=O)c1nc(Cl)c(N)nc1N [amiloride]
oropharyngeal deposition, fraction of generated amiloride [2]: 1.6%
systemic dose relative to maximum [2]: ≤ 20 mg/day
total systemic daily dose [2]: 16.7 mg
oropharyngeal deposition (in words) ([2]; MDI or Spinhaler without spacer or impactor): high
systemic dose relative to maximum (in words) ([2]; MDI with spacer alone, 12 mg/day respirable): somewhat higher than the maximum
oropharyngeal dose (in words) ([2]; Spinhaler alone): far too high
systemic dose (in words) ([2]; Spinhaler alone): excessive
oropharyngeal deposition (in words) ([2]; with spacer or impactor, most particles larger than about 5 μm removed): decreases substantially
clinical benefit (cystic fibrosis): confirmed clinical benefit
mass median diameter (mmd) ([3]; MDI with spacer and impactor): about 3 um
mass median diameter (mmd) ([3]; MDI with spacer, no impactor): about 6 um
mass median diameter (mmd) ([3]; Spinhaler alone): > 10 um
mass median diameter (mmd) ([3]; Spinhaler with impactor): about 4 um
inhibition of Na^+ and water absorption [4]: inhibit Na^+ and water absorption
maximum systemic dose [5]: 20 mg daily
optimal respirable dose [5]: 8 to 12 mg daily
